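All cell lines were grown in 96-well plates and treated with compound for 48 hours. Abbreviation: GI50, concentration required for 50% inhibition of growth. The concentration for full growth arrest is given as TGI.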
How the values were obtained:
Assay in all cases: NCI anticancer screen, dose series, 48 h
NCI-H460 lung = system: NCI-H460 lung
HOP-62 NSCLC = system: HOP-62 NSCLC
A498 renal = system: A498 renal
MOLT-4 leukemia = system: MOLT-4 leukemia
DU-145 prostate = system: DU-145 prostate
UO-31 renal = system: UO-31 renal
SR leukemia = system: SR leukemia
OVCAR-4 ovarian = system: OVCAR-4 ovarian
RXF 393 renal = system: RXF 393 renal
U251 CNS = system: U251 CNS
NCI-H23 lung = system: NCI-H23 lung
NCI-H226 lung = system: NCI-H226 lung
SF-268 CNS = system: SF-268 CNS
PC-3 prostate = system: PC-3 prostate
SNB-75 CNS = system: SNB-75 CNS
LOX IMVI melanoma = system: LOX IMVI melanoma
HS 578T breast = system: HS 578T breast
SNB-19 CNS = system: SNB-19 CNS
SK-OV-3 ovarian = system: SK-OV-3 ovarian
MALME-3M melanoma = system: MALME-3M melanoma
OVCAR-3 ovarian = system: OVCAR-3 ovarian
HT29 colon = system: HT29 colon
M14 melanoma = system: M14 melanoma
A549 NSCLC = system: A549 NSCLC
SK-MEL-5 melanoma = system: SK-MEL-5 melanoma
786-0 renal = system: 786-0 renal
HCT-116 colon = system: HCT-116 colon
OVCAR-5 ovarian = system: OVCAR-5 ovarian
MDA-MB-231 breast = system: MDA-MB-231 breast
HCT-15 colon = system: HCT-15 colon
NCI/ADR-RES ovarian = system: NCI/ADR-RES ovarian
BT-549 breast = system: BT-549 breast
UACC-62 melanoma = system: UACC-62 melanoma
ACHN renal = system: ACHN renal
CCRF-CEM leukemia = system: CCRF-CEM leukemia
OVCAR-8 ovarian = system: OVCAR-8 ovarian
SK-MEL-2 melanoma = system: SK-MEL-2 melanoma
NCI-H522 lung = system: NCI-H522 lung
UACC-257 melanoma = system: UACC-257 melanoma
RPMI-8226 leukemia = system: RPMI-8226 leukemia
TK-10 renal = system: TK-10 renal
KM12 colon = system: KM12 colon
HOP-92 NSCLC = system: HOP-92 NSCLC
MCF7 breast = system: MCF7 breast
SK-MEL-28 melanoma = system: SK-MEL-28 melanoma
HL-60(TB) leukemia = system: HL-60(TB) leukemia
CAKI-1 renal = system: CAKI-1 renal
SN12C renal = system: SN12C renal
SF-295 CNS = system: SF-295 CNS
IGROV1 ovarian = system: IGROV1 ovarian
T-47D breast = system: T-47D breast
HCC-2998 colon = system: HCC-2998 colon
COLO 205 colon = system: COLO 205 colon
SF-539 CNS = system: SF-539 CNS
K-562 leukemia = system: K-562 leukemia
SW-620 colon = system: SW-620 colon
MDA-MB-435 = system: MDA-MB-435

O=C1NCN(c2ccccc2)C12CCN(CCCC(c1ccc(F)cc1)c1ccc(F)cc1)CC2
GI50 (NCI-H460 lung): 1680 nM | TGI (NCI-H460 lung): 3080 nM | GI50 (HOP-62 NSCLC): 1840 nM | TGI (HOP-62 NSCLC): 3520 nM | GI50 (A498 renal): 1180 nM | TGI (A498 renal): 4940 nM | GI50 (MOLT-4 leukemia): 2310 nM | TGI (MOLT-4 leukemia): 5990 nM | GI50 (DU-145 prostate): 3250 nM | TGI (DU-145 prostate): 11200 nM | GI50 (UO-31 renal): 1280 nM | TGI (UO-31 renal): 3960 nM | GI50 (SR leukemia): 704 nM | TGI (SR leukemia): 3740 nM | GI50 (OVCAR-4 ovarian): 2130 nM | TGI (OVCAR-4 ovarian): 9980 nM | GI50 (RXF 393 renal): 1720 nM | TGI (RXF 393 renal): 4370 nM | GI50 (U251 CNS): 1550 nM | TGI (U251 CNS): 2910 nM | GI50 (NCI-H23 lung): 3310 nM | TGI (NCI-H23 lung): 15200 nM | GI50 (NCI-H226 lung): 7360 nM | TGI (NCI-H226 lung): 35500 nM | GI50 (SF-268 CNS): 2040 nM | TGI (SF-268 CNS): 4780 nM | GI50 (PC-3 prostate): 2490 nM | TGI (PC-3 prostate): 10700 nM | GI50 (SNB-75 CNS): 2070 nM | TGI (SNB-75 CNS): 14200 nM | GI50 (LOX IMVI melanoma): 1800 nM | TGI (LOX IMVI melanoma): 3320 nM | GI50 (HS 578T breast): 2170 nM | TGI (HS 578T breast): 6510 nM | GI50 (SNB-19 CNS): 2990 nM | TGI (SNB-19 CNS): 12800 nM | GI50 (SK-OV-3 ovarian): 4200 nM | TGI (SK-OV-3 ovarian): 14700 nM | GI50 (MALME-3M melanoma): 1660 nM | TGI (MALME-3M melanoma): 3460 nM | GI50 (OVCAR-3 ovarian): 2000 nM | TGI (OVCAR-3 ovarian): 3980 nM | GI50 (HT29 colon): 1510 nM | TGI (HT29 colon): 3220 nM | GI50 (M14 melanoma): 1670 nM | TGI (M14 melanoma): 3180 nM | GI50 (A549 NSCLC): 2560 nM | TGI (A549 NSCLC): 9680 nM | GI50 (SK-MEL-5 melanoma): 1600 nM | TGI (SK-MEL-5 melanoma): 2970 nM | GI50 (786-0 renal): 1670 nM | TGI (786-0 renal): 3520 nM | GI50 (HCT-116 colon): 1580 nM | TGI (HCT-116 colon): 2960 nM | GI50 (OVCAR-5 ovarian): 3760 nM | TGI (OVCAR-5 ovarian): 16400 nM | GI50 (MDA-MB-231 breast): 1890 nM | TGI (MDA-MB-231 breast): 3880 nM | GI50 (HCT-15 colon): 2090 nM | TGI (HCT-15 colon): 4710 nM | GI50 (NCI/ADR-RES ovarian): 2850 nM | TGI (NCI/ADR-RES ovarian): 10200 nM | GI50 (BT-549 breast): 2530 nM | TGI (BT-549 breast): 7940 nM | GI50 (UACC-62 melanoma): 1680 nM | TGI (UACC-62 melanoma): 3150 nM | GI50 (ACHN renal): 2790 nM | TGI (ACHN renal): 7230 nM | GI50 (CCRF-CEM leukemia): 2140 nM | TGI (CCRF-CEM leukemia): 6090 nM | GI50 (OVCAR-8 ovarian): 1600 nM | TGI (OVCAR-8 ovarian): 3050 nM | GI50 (SK-MEL-2 melanoma): 1560 nM | TGI (SK-MEL-2 melanoma): 2980 nM | GI50 (NCI-H522 lung): 1510 nM | TGI (NCI-H522 lung): 2930 nM | GI50 (UACC-257 melanoma): 1590 nM | TGI (UACC-257 melanoma): 3150 nM | GI50 (RPMI-8226 leukemia): 1820 nM | TGI (RPMI-8226 leukemia): 4100 nM | GI50 (TK-10 renal): 1790 nM | TGI (TK-10 renal): 4110 nM | GI50 (KM12 colon): 2140 nM | TGI (KM12 colon): 4380 nM | GI50 (HOP-92 NSCLC): 397 nM | TGI (HOP-92 NSCLC): 2620 nM | GI50 (MCF7 breast): 1880 nM | TGI (MCF7 breast): 5650 nM | GI50 (SK-MEL-28 melanoma): 1620 nM | TGI (SK-MEL-28 melanoma): 3100 nM | GI50 (HL-60(TB) leukemia): 1820 nM | TGI (HL-60(TB) leukemia): 4000 nM | GI50 (CAKI-1 renal): 2510 nM | TGI (CAKI-1 renal): 7440 nM | GI50 (SN12C renal): 2450 nM | TGI (SN12C renal): 8360 nM | GI50 (SF-295 CNS): 1500 nM | TGI (SF-295 CNS): 3100 nM | GI50 (IGROV1 ovarian): 2360 nM | TGI (IGROV1 ovarian): 9890 nM | GI50 (T-47D breast): 2430 nM | TGI (T-47D breast): 6490 nM | GI50 (HCC-2998 colon): 2240 nM | TGI (HCC-2998 colon): 4160 nM | GI50 (COLO 205 colon): 1720 nM | TGI (COLO 205 colon): 3240 nM | GI50 (SF-539 CNS): 1710 nM | TGI (SF-539 CNS): 3130 nM | GI50 (K-562 leukemia): 1710 nM | TGI (K-562 leukemia): 4110 nM | GI50 (SW-620 colon): 2060 nM | TGI (SW-620 colon): 4580 nM | GI50 (MDA-MB-435): 1750 nM | TGI (MDA-MB-435): 3770 nM

From PubChem BioAssay (NCI)
